US12116358B2, “Substituted indoles and methods of use thereof” (EPIZYME, INC., priority 2018, dated 2024)

System: H3K36me3 in A549 cells
Assay: In-Cell Western (ICW) assay of SETD2 inhibitors (A549 assay)
Format: cell-based, human
Settings: A549 cells; read-out: SETD2 A549
Protocol: In-Cell Western (ICW) Assay of SETD2 Inhibitors (A549 Assay)
Representative Compounds of the Disclosure were tested in the A549 assay according the following protocol.
1. Reagents and Consumables:
Prepare plates with compounds. Seed A549 cells to the plates with compounds, 4,000 cells/well, 50 μl/well. Put the plates at room temperature on a non-vibrating surface for 20 minutes before placing in the incubator. Incubate the plate at 37° C. incubator with CO2 for 3 days. Remove plate from incubator and bring to room temperature. Blot media out of the plate and add 50 μL of ice cold 100% methanol. Incubate 30 minutes at room temperature. Remove methanol by aspiration. Wash 3× with PBST. Add 50 μL of Blocking Buffer+0.1% Tween 20. Incubate 1 hour. Remove Blocking Buffer, wash 3× with PBST. Add 20 μL of H3K36me3 (1:1000 dilution). […] Incubate overnight at 4° C. Wash plate 5× with PBS-T. Add 20 μL of DRAQ5 (1:1000) and IRDye 800CW Goat anti-Rabbit IgG (1:500). Incubate for 1 hour in the dark. Wash plate 5× with PBS-T. Wash plate 3× with water. Dry by blotting on paper towel, then centrifuge plate upside down on a thin layer of paper towels for 1 minute at 1000 rpm to remove excess reagent. Leave plate uncovered for ˜10 minutes out of direct light before reading. Read on Licor instrument.
4. Licor Instrument Settings:
Preset: Plate; Resolution: 84 μm; Quality: low; Focus offset: 4.0; 700 channel intensity: 2; and 800 channel intensity: 3.

| Compound | IC50 [nM] |
| --- | --- |
| Cc1ccc(F)c2cc(C(=O)Nc3cccc(N4CC5CCC(C4)O5)c3)[nH]c12 [compound 250] | 600 |
| Cc1cccc2cc(C(=O)Nc3ccc4nc(NC5CCNCC5)ncc4c3)[nH]c12 [compound 473] | 8800 |
| Cc1ccc(F)c2cc(C(=O)NC3CCCC(N4CCn5ncnc5C4)C3)[nH]c12 (stereo not shown) [compound 868] | 200 |
| Cc1ccc(F)c2cc(C(=O)NC3CCCC(N4CCN5C(=O)N(C)CC5C4)C3)[nH]c12 (stereo not shown) [compound 1051] | 30 |
| C=Cc1ccc(C)c2[nH]c(C(=O)NC(CCC(=O)N3CCOCC3)c3ncccc3C)cc12 (stereo not shown) [compound 431] | 4400 |
| CCN(C(=O)CO)C1CCN(C2CCCC(NC(=O)c3cc4c(F)ccc(C)c4[nH]3)C2)C1 (stereo not shown) [compound 1129] | 100 |
| Cc1ccc(F)c2cc(C(=O)N[C@@H]3CCC[C@@H](N4CCN5C(=O)CCC5C4)C3)[nH]c12 (stereo partly shown) [compound 864] | 1200 |
| CC(=O)N1CCC2CN(C3CCCC(NC(=O)c4cc5c(F)ccc(C)c5[nH]4)C3)CC21 (stereo not shown) [compound 1181] | > 2000 |
| Cc1ccc(F)c2cc(C(=O)N[C@@H]3CCC[C@@H](N4CCN(S(C)(=O)=O)CC4)C3)[nH]c12 [compound 851] | > 2000 |
| Cc1ccc(F)c2cc(C(=O)NC3CCCC(N4CCOCC4)C3)[nH]c12 (stereo not shown) [compound 381] | > 2000 |
| Cc1ccc(F)c2cc(C(=O)NC3CCCC(N4CCN(C)C(=O)C4)C3)[nH]c12 (stereo not shown) [compound 382] | > 2000 |
| Cc1ccc(F)c2cc(C(=O)NC3CCCC(c4nnc(CN(C)C)o4)C3)[nH]c12 (stereo not shown) [compound 954] | > 2000 |
| CC(=O)N1CCC2C1CCN2C1CCCC(NC(=O)c2cc3c(F)ccc(C)c3[nH]2)C1 (stereo not shown) [compound 1185] | 70 |
| Cc1ccc(F)c2cc(C(=O)NC3CCCC(N4CCN5C(=O)CCC5C4)C3)[nH]c12 (stereo not shown) [compound 920] | 100 |
| Cc1ccc(F)c2cc(C(=O)NC3CCCC(N4CCN5C(=O)CCC5C4)C3)[nH]c12 (stereo not shown) [compound 863] | 20 |
| Cc1cccc2cc(C(=O)NCc3ccccc3N3CCCC3)[nH]c12 [compound 528] | 24600 |
| Cc1ccc(F)c2cc(C(=O)Nc3ncc(C4CCN(C)CC4)n3C)[nH]c12 [compound 1159] | > 25000 |
| CC(=O)N1CCC2C1CCN2C1CCCC(NC(=O)c2cc3c(F)ccc(C)c3[nH]2)C1 (stereo not shown) [compound 1187] | > 2000 |
| Cc1ccc(F)c2cc(C(=O)N[C@@H]3CCC[C@@H](N4CCN5C(=O)CC[C@@H]5C4)C3)[nH]c12 [compound 921] | 1000 |
| CC(=O)N(C)[C@@H]1CCN([C@@H]2CCC[C@@H](NC(=O)c3cc4c(F)ccc(C)c4[nH]3)C2)C1 [compound 849] | > 2000 |
| CC(=O)N1CCC2C1CCN2C1CCCC(NC(=O)c2cc3c(F)ccc(C)c3[nH]2)C1 (stereo not shown) [compound 1186] | > 2000 |
| Cc1ccc(F)c2cc(C(=O)NC3CCCC(N4CCN5C(=O)CCC5C4)C3)[nH]c12 (stereo not shown) [compound 922] | 10 |
| CC(=O)N1CCC2CN(C3CCCC(NC(=O)c4cc5c(F)ccc(C)c5[nH]4)C3)CC21 (stereo not shown) [compound 1183] | > 2000 |
| Cc1ccc(F)c2cc(C(=O)NC3CCCC(N4CCOCC4)C3)[nH]c12 (stereo not shown) [compound 374] | > 2000 |
| CC(=O)N1CCC2C1CCN2C1CCCC(NC(=O)c2cc3c(F)ccc(C)c3[nH]2)C1 (stereo not shown) [compound 1184] | 5 |
| Cc1cccnc1[C@@H](NC(=O)c1cc2cccc(C)c2[nH]1)C1CC1 [compound 613] | > 25000 |
| Cc1cccnc1C(NC(=O)c1cc2nccc(C)c2[nH]1)C1CC1 (stereo not shown) [compound 599] | > 25000 |

Same assay, conditions: Homo sapiens, A549, read-out: SETD2 A549

| Compound | IC50 [nM] |
| --- | --- |
| Cc1ccc(F)c2cc(C(=O)Nc3cccc(N4CCN(CCO)CC4)c3)[nH]c12 [compound 204] | 400 |
| Cc1cccnc1C(NC(=O)c1cc2cc(F)cc(C)c2[nH]1)C1CC1 (stereo not shown) [compound 497] | 13800 |
| Cc1cccnc1[C@H](NC(=O)c1cc2cccc(C)c2[nH]1)C1CC1 [compound 463] | 6400 |
| CC(=O)N(C)[C@H]1CCN([C@H]2CCC[C@@H](NC(=O)c3cc4c(F)ccc(C)c4[nH]3)C2)C1 [compound 841] | 100 |
| CC(=O)N(C)[C@H]1CCN([C@@H]2CCC[C@@H](NC(=O)c3cc4c(F)ccc(C)c4[nH]3)C2)C1 [compound 842] | > 2000 |
| Cc1ccc(F)c2cc(C(=O)N[C@@H]3CCC[C@H](N4CCN(C)C(=O)C4)C3)[nH]c12 [compound 169] | 300 |
| Cc1ccc(F)c2cc(C(=O)N[C@@H]3CCC[C@@H](c4ccncc4)C3)[nH]c12 [compound 912] | > 2000 |
| Cc1cccnc1C(NC(=O)c1cc2cccc(C)c2[nH]1)C1CC1 (stereo not shown) [compound 475] | 8900 |
| CC(=O)N(C)C1CCN([C@@H]2CCC[C@@H](NC(=O)c3cc4c(F)ccc(C)c4[nH]3)C2)C1 (stereo partly shown) [compound 385] | > 2000 |
| Cc1ccc(F)c2cc(C(=O)N[C@H]3CCC[C@@H](c4ccncc4)C3)[nH]c12 [compound 914] | 300 |
| Cc1ccc(F)c2cc(C(=O)N[C@@H]3CCC[C@H](c4ccncc4)C3)[nH]c12 [compound 913] | > 2000 |
| Cc1cccnc1C(NC(=O)c1cc2c(F)ccc(C)c2[nH]1)C1CC1 (stereo not shown) [compound 462] | 6300 |
| Cc1cccc2cc(C(=O)Nc3ccccc3)[nH]c12 [compound 479] | 9500 |
| Cc1cccc2cc(C(=O)N[C@H]3CC[C@@H](NC(=O)CCN)CC3)[nH]c12 [compound 592] | > 25000 |
| Cc1ccc(F)c2cc(C(=O)N[C@H]3CCC[C@H](c4ccncc4)C3)[nH]c12 [compound 915] | > 2000 |

Same assay, conditions: Homo sapiens; A549 cells; read-out: SETD2 A549

| Compound | IC50 [nM] |
| --- | --- |
| Cc1ccc(F)c2cc(C(=O)Nc3cc(N4CCN(C)CC4)c4ncccc4c3)[nH]c12 [compound 350] | > 2000 |
| Cc1ccc(F)c2cc(C(=O)Nc3cccc(OCCN(C)C)c3)[nH]c12 [compound 323] | 1500 |
| CC(=O)N1CCN(C(=O)C2CCCN(C(=O)c3cc4c(F)ccc(C)c4[nH]3)C2)CC1 (stereo not shown) [compound 886] | > 2000 |
| Cc1nccnc1C(NC(=O)c1cc2cccc(C)c2[nH]1)C1CC1 (stereo not shown) [compound 518] | 18900 |
| CCc1ccc(C)c2[nH]c(C(=O)NC(CCC(=O)N3CCOCC3)c3ncccc3C)cc12 (stereo not shown) [compound 485] | 10800 |

Target: T1, SETD2(1434-1711) (Homo sapiens, UniProt Q9BYW2)
T1 construct: SETD2 (1434-1711) Assay; catalogue N/A
T1 sequence (Q9BYW2 1434-1711): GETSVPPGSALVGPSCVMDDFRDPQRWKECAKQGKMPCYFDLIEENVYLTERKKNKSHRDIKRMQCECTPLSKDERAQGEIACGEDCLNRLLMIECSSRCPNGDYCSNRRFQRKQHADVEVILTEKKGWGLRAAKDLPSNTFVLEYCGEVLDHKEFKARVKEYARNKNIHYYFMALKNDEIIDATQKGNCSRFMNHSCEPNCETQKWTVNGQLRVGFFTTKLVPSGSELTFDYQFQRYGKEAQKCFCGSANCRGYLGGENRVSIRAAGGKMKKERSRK
Assay: SETD2 (1434-1711) assay
Format: biochemical
Settings: not given

| Compound | IC50 [nM] |
| --- | --- |
| Cc1ccc(F)c2cc(C(=O)Nc3cccc(N4CCN(CCO)CC4)c3)[nH]c12 [compound 204] | 80 |

Same assay, conditions: read-out: SETD2 (1434-1711)

| Compound | IC50 [nM] |
| --- | --- |
| Cc1ccc(F)c2cc(C(=O)Nc3cc(N4CCN(C)CC4)c4ncccc4c3)[nH]c12 [compound 350] | 80 |
| Cc1ccc(F)c2cc(C(=O)Nc3cccc(N4CC5CCC(C4)O5)c3)[nH]c12 [compound 250] | 100 |
| Cc1ccc(F)c2cc(C(=O)Nc3cccc(OCCN(C)C)c3)[nH]c12 [compound 323] | 70 |
| Cc1cccc2cc(C(=O)Nc3ccc4nc(NC5CCNCC5)ncc4c3)[nH]c12 [compound 473] | 200 |
| Cc1ccc(F)c2cc(C(=O)NC3CCCC(N4CCn5ncnc5C4)C3)[nH]c12 (stereo not shown) [compound 868] | 100 |
| Cc1ccc(F)c2cc(C(=O)NC3CCCC(N4CCN5C(=O)N(C)CC5C4)C3)[nH]c12 (stereo not shown) [compound 1051] | 10 |
| C=Cc1ccc(C)c2[nH]c(C(=O)NC(CCC(=O)N3CCOCC3)c3ncccc3C)cc12 (stereo not shown) [compound 431] | 2100 |
| CCN(C(=O)CO)C1CCN(C2CCCC(NC(=O)c3cc4c(F)ccc(C)c4[nH]3)C2)C1 (stereo not shown) [compound 1129] | 10 |
| CC(=O)N1CCN(C(=O)C2CCCN(C(=O)c3cc4c(F)ccc(C)c4[nH]3)C2)CC1 (stereo not shown) [compound 886] | 8900 |
| Cc1cccc2cc(C(=O)NCc3ccccc3Cl)[nH]c12 [compound 1153] | > 200000 |
| Cc1cccc2cc(C(=O)N3CCN(C(N)=O)CC3)[nH]c12 [compound 787] | > 200000 |
| Cc1cccc2cc(C(=O)NC(C)c3ccccc3)[nH]c12 (stereo not shown) [compound 749] | > 200000 |
| Cc1cccc2cc(C(=O)N3CCn4ncnc4C3)[nH]c12 [compound 812] | > 200000 |
| Cc1cccc2cc(C(=O)N[C@H](CO)Cc3ccccc3)[nH]c12 [compound 765] | > 200000 |
| COC(=O)CC(NC(=O)c1cc2cccc(C)c2[nH]1)c1ccc(Cl)cc1 (stereo not shown) [compound 764] | > 200000 |
| Cc1cccc2cc(C(=O)NC3CC4CCC(C3)C4NC(=O)CCN)[nH]c12 (stereo not shown) [compound 640] | 18500 |
| Cc1cccc([C@@H](C)NC(=O)c2cc3cccc(C)c3[nH]2)c1 [compound 713] | 91200 |
| Cc1cc(C)c2[nH]c(C(=O)N[C@H]3CC[C@H](N)CC3)cc2c1 [compound 756] | > 200000 |
| Cc1nc(C(C)NC(=O)c2cc3cccc(C)c3[nH]2)no1 (stereo not shown) [compound 785] | > 200000 |
| CCN1CCN(C2CCCC(NC(=O)c3cc4c(F)ccc(C)c4[nH]3)C2)CC1=O (stereo not shown) [compound 835] | 100 |
| Cc1cccc2cc(C(=O)N[C@@H](CO)Cc3ccccc3)[nH]c12 [compound 692] | 56900 |
| COc1ccc(C(O)CNC(=O)c2cc3cccc(C)c3[nH]2)cc1 (stereo not shown) [compound 754] | > 200000 |
| Cc1cccc2cc(C(=O)NC3CCCc4ccccc43)[nH]c12 (stereo not shown) [compound 753] | > 200000 |
| Cc1cccc2cc(C(=O)N3CCn4cnnc4C3)[nH]c12 [compound 811] | > 200000 |
| COC(=O)C[C@H](NC(=O)c1cc2cccc(C)c2[nH]1)C(=O)OC [compound 708] | 74000 |
| CCOC(=O)[C@@H]1CCCC[C@H]1NC(=O)c1cc2cccc(C)c2[nH]1 [compound 797] | > 200000 |
| Cc1cccc2cc(C(=O)N(C)[C@H]3CC[C@H](N)CC3)[nH]c12 [compound 761] | > 200000 |
| COC(=O)CC(NC(=O)c1cc2cccc(C)c2[nH]1)c1cccc(F)c1 (stereo not shown) [compound 707] | 72000 |
